Experimental data reported in patent US8058242B2, “Chimeric proteins with natriuretic activity” (The University of Queensland, priority 2004, dated 2011).
Positions of bridges follow the written chain, without caps; N, C: chain ends. Residues, ends and D or L forms follow the SMILES beside them.

Experiments:
[1] = tested on: CHF-induced sheep; test: Ovine model of tachycardia induced congestive heart failure (Example 9); type: in vivo
Source text: All procedures conform with the Guide for the Care and Use of Laboratory Animals published by the US National Institutes of Health (NIH Publication No. 82-23, revised 1996). Six adult crossbred sheep (weight, 50 to 55 kg) were implanted with pacemakers under isoflurane anesthesia and oxygen. A bipolar screw fixation ventricular pacing lead was placed transvenously under fluoroscopic guidance in the apex of the right ventricle. The proximal end of the lead was connected to pacemakers reprogrammed for high-rate pacing (Sigma, Medtronic) that were positioned subcutaneously in the lateral aspect of the neck. Oxytetracycline (5 mL), an antibiotic, and flunixin meglumine (1 mL), an analgesic, were administered subcutaneously prophylactically on the day of surgery. After 3 days of recovery, right ventricular pacing was initiated at 180 bpm and continued for 4 weeks to induce CHF (NYHC III). Animals were anesthetized and an echocardiographic examination and a conductance catheter evaluation were performed.
Animals were randomized to either TNPc or ANP on two consecutive days, according to the schedule in Table 11B. Studies were conducted over a period of 4 days with two study groups.
On the day of the first experiment, after a control period in which baseline measurements were made, drug infusion via a fore-leg vein using new calibrated Terumo syringe pumps was commenced (TNPc or ANP randomized to days 1 or 2) at 2, 4 and 6 pmol/min/kg, each for 30 min. Echocardiographic and conductance catheter evaluations were performed at 30 min after each drug level. On the second day, the experiment was repeated with the other drug (either TNPc or […] according to day 1 treatment) at 2, 4 and 6 pmol/min, each for 30 min and echocardiographic and conductance catheter evaluations were performed at 30 min after each drug level. The animal was euthanased at the conclusion of the experiment. Stock solutions of each peptide were made up under sterile conditions using sterile saline, were protected from light with aluminium foil and kept refrigerated.
Left ventricular (LV) ejection fraction was monitored by echocardiography and the conductance catheter was used to measure LV dP/i, LV end diastolic pressure, LV ESPVR, heart rate and mean arterial pressure (MAP). Values were expressed as mean +/−SEM and were analyzed by Students t-test. A value of p<0.05 was considered significant.

[2] = molecular target: Endopeptidase (NEP) (EC 3.4.24.11) (Homo sapiens, UniProt P08473); test: Stability to enzymatic degradation by NEP (Examples 7, 16); type: in vitro ADME; details: over the 180 min measurement period, 37° C.
Endopeptidase (NEP) (EC 3.4.24.11), sequence (P08473 whole entry): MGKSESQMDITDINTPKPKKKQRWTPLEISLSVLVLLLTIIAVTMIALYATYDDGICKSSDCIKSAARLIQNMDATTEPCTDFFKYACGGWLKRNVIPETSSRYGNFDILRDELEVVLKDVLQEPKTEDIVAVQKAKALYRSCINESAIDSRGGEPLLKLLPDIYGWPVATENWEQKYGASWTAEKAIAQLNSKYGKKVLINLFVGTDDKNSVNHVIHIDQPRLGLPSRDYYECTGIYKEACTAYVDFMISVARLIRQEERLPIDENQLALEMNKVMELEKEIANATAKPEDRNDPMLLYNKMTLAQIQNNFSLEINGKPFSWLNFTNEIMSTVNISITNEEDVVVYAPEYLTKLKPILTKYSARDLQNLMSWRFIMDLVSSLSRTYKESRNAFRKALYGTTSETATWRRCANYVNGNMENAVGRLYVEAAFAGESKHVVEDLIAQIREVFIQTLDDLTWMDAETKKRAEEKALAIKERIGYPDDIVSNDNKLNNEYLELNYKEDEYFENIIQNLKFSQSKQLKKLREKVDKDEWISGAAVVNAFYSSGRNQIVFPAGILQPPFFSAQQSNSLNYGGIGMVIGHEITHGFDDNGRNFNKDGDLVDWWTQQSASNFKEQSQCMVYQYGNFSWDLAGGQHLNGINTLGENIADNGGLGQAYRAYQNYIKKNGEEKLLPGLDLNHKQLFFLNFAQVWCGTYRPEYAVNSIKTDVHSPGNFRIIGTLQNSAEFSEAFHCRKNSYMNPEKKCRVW
Method: The incubation buffer contained 100 mM Tris/HCl and 150 mM NaCl and the pH was adjusted to 7.2-7.4. In each assay, 100 μl of peptide [500 μM] was incubated with 300 μl buffer (with 500 ng Endopeptidase (NEP) or 10 μg Plasmin) at 37° C. 50 μl aliquots were taken at times 5 min, 30 min, 60 min, 90 min, 180 min and 24 h. The reaction was quenched by heating to 100° C. for 4 min and the remaining peptide concentrations measured by RP-HPLC. Note that the levels of Plasmin required to degrade these peptides was several thousands time the levels present in human plasma.
The stability of TDT and was investigated using the same enzymatic degradation assays (NEP, plasmin, pepsin) disclosed in Example 7. […] It is also evident that the increased NEP stability cannot be explained by the length of the tail region alone as the NEP cleavage site residues at the N-terminal end of the loop region.

[3] = tested on: normal rats; test: Hemodynamic parameters in normal anesthetized rats (Example 10)
[4] = Stability assay in human plasma (Example 6); type: in vitro ADME; details: 24 h at 37° C., read-out: peptide remaining in plasma
Method: Plasma preparation: Blood samples (from healthy human volunteers) were drawn into a sealed tube containing ethylene diamine tetra-acetic acid (EDTA). After sampling, the plasma was separated by centrifugation at 14,000 rpm for 30 min. Plasma was taken out and stored in separated Eppendorf tubes at −20° C.
Stability assay in human and rat plasma: Human or rat plasma (sample size 200 μL) was incubated at 37° C. for 5 min. 50 μL peptide stock solution (5 mg/mL) was added to the plasma. The vortexed reaction mixture was incubated at 37° C. Sample aliquots of 30 μL were taken from the reaction mixture at sequential intervals of 0 h, 1 h, 2 h, 4 h and 24 h and the sample reaction quenched immediately with 30 μL extraction buffer containing 50% Acetonitrile, 50% 0.1 M NaCl and 1% TFA. The quenched aliquots were cooled in ice for 5 min prior to centrifugation at 14,000 rpm for 15 min. 20 μl of the supernatant from each of the centrifuged aliquots was injected into RP-HPLC for analysis.

Structure (SMILES): CC[C@H](C)[C@@H]1NC(=O)[C@H](CCCNC(=N)N)NC(=O)[C@H](CC(=O)O)NC(=O)[C@H](CCSC)NC(=O)[C@H](CCCNC(=N)N)NC(=O)CNC(=O)CNC(=O)[C@H](Cc2ccccc2)NC(=O)[C@@H](NC(=O)[C@H](CO)NC(=O)[C@H](CO)NC(=O)[C@H](CCCNC(=N)N)NC(=O)[C@H](CCCNC(=N)N)NC(=O)[C@H](CC(C)C)NC(=O)[C@@H](N)CO)CSSC[C@@H](C(=O)N[C@@H](CC(N)=O)C(=O)N[C@@H](CO)C(=O)N[C@@H](Cc2ccccc2)C(=O)N[C@@H](CCCNC(=N)N)C(=O)N[C@@H](Cc2ccc(O)cc2)C(=O)O)NC(=O)CNC(=O)[C@H](CC(C)C)NC(=O)CNC(=O)[C@H](CO)NC(=O)[C@H](CCC(N)=O)NC(=O)[C@H](C)NC(=O)CNC1=O [hANP, reference compound]
- +dP/dt ([1]; high dose infusion): 1047.00
- EDP ([1]; high dose infusion): 3.33
- ESPR slope ([1]; high dose infusion): 3.04
- ejection fraction ([1]; high dose infusion): 54.50
- heart rate ([1]; high dose infusion): 96.33
- −dP/dt ([1]; high dose infusion): 1332.17
- +dP/dt ([1]; low dose infusion): 949.33
- EDP ([1]; low dose infusion): 5.83
- ESPR slope ([1]; low dose infusion): 2.85
- ejection fraction ([1]; low dose infusion): 42.17
- heart rate ([1]; low dose infusion): 91.00
- −dP/dt ([1]; low dose infusion): 1336.50
- +dP/dt ([1]; recovery (30 min)): 1035.83
- EDP ([1]; recovery (30 min)): 6.33
- ESPR slope ([1]; recovery (30 min)): 3.44
- ejection fraction ([1]; recovery (30 min)): 41.00
- heart rate ([1]; recovery (30 min)): 91.00
- −dP/dt ([1]; recovery (30 min)): 1232.17

Structure (SMILES): CC[C@H](C)[C@H](NC(=O)[C@H](CCCCN)NC(=O)[C@H](CO)NC(=O)[C@H](CC(=O)O)NC(=O)[C@@H](N)CO)C(=O)NCC(=O)N[C@@H](CC(N)=O)C(=O)NCC(=O)N[C@H]1CSSC[C@@H](C(=O)N[C@@H](CC(N)=O)C(=O)N[C@@H](CCCNC(=N)N)C(=O)N[C@H](C(=O)N[C@@H](CCSC)C(=O)N[C@@H](CCC(N)=O)C(=O)N[C@@H](CC(N)=O)C(=O)N2CCC[C@H]2C(=O)N2CCC[C@H]2C(=O)N[C@@H](CCCCN)C(=O)N[C@@H](CCCCN)C(=O)N[C@@H](Cc2ccccc2)C(=O)N[C@@H](CO)C(=O)NCC(=O)N[C@@H](CCC(=O)O)C(=O)O)[C@@H](C)CC)NC(=O)CNC(=O)[C@H](CC(C)C)NC(=O)CNC(=O)[C@H](CO)NC(=O)[C@H](C(C)C)NC(=O)[C@H](CO)NC(=O)CNC(=O)[C@H]([C@@H](C)CC)NC(=O)[C@H](CCCNC(=N)N)NC(=O)[C@H](CC(=O)O)NC(=O)[C@H](CC(C)C)NC(=O)[C@@H]2CCCN2C(=O)[C@H](Cc2ccccc2)NC(=O)CNC(=O)[C@H](Cc2ccccc2)NC1=O [TNPc] (H-SDSKIGNGCFGFPLDRIGSVSGLGCNRIMQNPPKKFSGE-OH; disulfide 9-25)
- reduction of −dp/dt ([1]; TNPc infusion): 27%
- +dP/dt ([1]; high dose infusion): 1078.00
- EDP ([1]; high dose infusion): 4.17
- ESPR slope ([1]; high dose infusion): 3.78
- ejection fraction ([1]; high dose infusion): 61.83
- heart rate ([1]; high dose infusion): 100.67
- −dP/dt ([1]; high dose infusion): 1298.00
- +dP/dt ([1]; low dose infusion): 1079.67
- EDP ([1]; low dose infusion): 5.83
- ESPR slope ([1]; low dose infusion): 2.72
- ejection fraction ([1]; low dose infusion): 48.17
- heart rate ([1]; low dose infusion): 98.00
- −dP/dt ([1]; low dose infusion): 1469.50
- +dP/dt ([1]; recovery (30 min)): 1064.83
- EDP ([1]; recovery (30 min)): 7.67
- ESPR slope ([1]; recovery (30 min)): 3.35
- ejection fraction ([1]; recovery (30 min)): 42.33
- heart rate ([1]; recovery (30 min)): 98.00
- −dP/dt ([1]; recovery (30 min)): 1201.50
- degradation by NEP [2]: did not show any degradation
- Blood Flow, mean change from control ([3]; 50 pmol/kg/min, 30 min): -5.2 mL/min
- Conductance, mean change from control ([3]; 50 pmol/kg/min, 30 min): −1.1 ml/min/mmHg
- Diastolic LVP, mean change from control ([3]; 50 pmol/kg/min, 30 min): −1.4 mmHg
- HCT, mean change from control ([3]; 50 pmol/kg/min, 30 min): −1.7%
- HR, mean change from control ([3]; 50 pmol/kg/min, 30 min): −13.5 BPM
- Mean BP, mean change from control ([3]; 50 pmol/kg/min, 30 min): −21.0 mmHg
- Urine Flow, mean change from control ([3]; 50 pmol/kg/min, 30 min): 0.4 mL/h
- Blood Flow, mean change from control ([3]; 100 pmol/kg/min, 30 min): -7.3 mL/min
- Conductance, mean change from control ([3]; 100 pmol/kg/min, 30 min): −2.1 ml/min/mmHg
- Diastolic LVP, mean change from control ([3]; 100 pmol/kg/min, 30 min): −0.9 mmHg
- HCT, mean change from control ([3]; 100 pmol/kg/min, 30 min): −3.5%
- HR, mean change from control ([3]; 100 pmol/kg/min, 30 min): −23.6 BPM
- Mean BP, mean change from control ([3]; 100 pmol/kg/min, 30 min): −25.9 mmHg
- Urine Flow, mean change from control ([3]; 100 pmol/kg/min, 30 min): 0.9 mL/h
- Blood Flow, mean change from control ([3]; Recovery): -3.0 mL/min
- Conductance, mean change from control ([3]; Recovery): −1.3 ml/min/mmHg
- Diastolic LVP, mean change from control ([3]; Recovery): −0.6 mmHg
- HCT, mean change from control ([3]; Recovery): 3.1%
- HR, mean change from control ([3]; Recovery): −17.9 BPM
- Mean BP, mean change from control ([3]; Recovery): −4.1 mmHg
- Urine Flow, mean change from control ([3]; Recovery): 0.6 mL/h
- Blood Flow, Average drug response SED ([3]; average of the two doses): -6.2 mL/min
- Conductance, Average drug response SED ([3]; average of the two doses): −1.6 ml/min/mmHg
- Diastolic LVP, Average drug response SED ([3]; average of the two doses): −1.1 mmHg
- HCT, Average drug response SED ([3]; average of the two doses): −2.6%
- HR, Average drug response SED ([3]; average of the two doses): −18.6 BPM
- Mean BP, Average drug response SED ([3]; average of the two doses): −23.5 mmHg
- Urine Flow, Average drug response SED ([3]; average of the two doses): 0.7 mL/h
- remaining at 24 h, 1 mg/mL [4]: 72%
